Read-outs that look alike come from different tables or passages of the source.

In one assay the test system is HCV genotype 1b replicon. The experiment in a line: HCV replicon assay, genotype 1b replicon EC50. Conditions: Hepatitis C virus, HCV replicon, genotype 1b, read-out: EC50 [gt-1b]. Format: cell-based, Hepatitis C virus. The procedure, abridged:
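Stable neomycin-selected genotype 1b replicon cells, some carrying luciferase:Neo^r fusion, plated without G418 with a compound dilution series and incubated 24-48 h. Read-out was RNA (^32P-probe protection or TaqMan, normalized to cyclophilin A) or luciferase activity. EC50 from four-parameter fit as percent of DMSO control.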

For assay [1], the target named is HCV NS3/4A protease genotype 1b (Hepatitis C virus genotype 1b, UniProt P26663). The experiment in a line: HCV NS3/4A protease time-resolved fluorescence (TRF) assay, Ki against genotype 1b. Format: biochemical. Conditions: IC50 [gt-1b], NS3/4A protease TRF assay, genotype 1b enzyme 0.2 nM. The procedure, abridged: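 Time-resolved fluorescence readout of NS3/4A cleavage of 25 nM europium-labelled peptide over 2.5 h at room temperature, enzyme levels set for signal/background 10–30 (0.2, 0.4, 0.025 nM for 1b, A156T, 3a). Ki by IC50=Ki(1+[S]/KM).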

The EC50 is the concentration needed to bring the measured effect to its halfway point. The IC50 is the concentration that inhibits the measured activity by half. With `COc1ccc2nc(C)c3c(c2c1)CC[C@]1(C[C@H]2C(=O)N[C@]4(C(=O)NS(=O)(=O)C5(C)CC5)C[C@H]4/C=C\CCCCC[C@H](Nc4ncccc4C)C(=O)N2C1)O3` [Example 429, (2R,6S,12Z,13aS,14aR,16aS)-9′-methoxy-5′-methyl-N-[(1-methylcyclopropyl)sulfonyl]-6-[(3-methylpyridin-2-yl)amino]-5,16-dioxo-1,1′,2′,6,7,8,9,10,11,13a,14,15,16,16a-tetradecahydrospiro[cyclopropa[e]pyrrolo[1,2-a][1,4]diazacyclopentadecine-2,3′-pyrano[2,3-c]quinoline]-14a(5H)-carboxamide], the EC50 with HCV genotype 1b replicon turned out to be 4.28 nM. Further, in assay [1], the half-inhibitory concentration (IC50) came to 0.194 nM.

For the compound `COCCOc1ccc2nc(C)c3c(c2c1)CC[C@]1(C[C@H]2C(=O)N[C@]4(C(=O)NS(=O)(=O)C5(C)CC5)C[C@H]4/C=C\CCCCC[C@H](NC(=O)OC(C)(C)C(F)(F)F)C(=O)N2C1)O3` [Example 430, 1,1,1-trifluoro-2-methylpropan-2-yl [(2R,6S,12Z,13aS,14aR,16aS)-9′-(2-methoxyethoxy)-5′-methyl-14a-{[(1-methylcyclopropyl)sulfonyl]carbamoyl}-5,16-dioxo-1,1′,2′,5,6,7,8,9,10,11,13a,14,14a,15,16,16a-hexadecahydrospiro[cyclopropa[e]pyrrolo[1,2-a][1,4]diazacyclopentadecine-2,3′-pyrano[2,3-c]quinolin]-6-yl]carbamate], the EC50 in the assay on HCV genotype 1b replicon was 5.04 nM. This compound registered a half-inhibitory concentration (IC50) in assay [1] of 0.026 nM.

Consider `COc1ccc2nc(C)c3c(c2c1)CC[C@]1(C[C@H]2C(=O)N[C@]4(C(=O)NS(=O)(=O)C5(C)CC5)C[C@H]4/C=C\CCCCC[C@H](Nc4cccc(OC)n4)C(=O)N2C1)O3` [Example 431, (2R,6S,12Z,13aS,14aR,16aS)-9′-methoxy-6-[(6-methoxypyridin-2-yl)amino]-5′-methyl-N-[(1-methylcyclopropyl)sulfonyl]-5,16-dioxo-1,1′,2′,6,7,8,9,10,11,13a,14,15,16,16a-tetradecahydrospiro[cyclopropa[e]pyrrolo[1,2-a][1,4]diazacyclopentadecine-2,3′-pyrano[2,3-c]quinoline]-14a(5H)-carboxamide], for which the concentration for a half-maximal effect (EC50) in the assay with HCV genotype 1b replicon came to 9.12 nM. The IC50 in assay [1] was 0.209 nM.

Turning to `COc1ccnc(N[C@H]2CCCCC/C=C\[C@@H]3C[C@@]3(C(=O)NS(=O)(=O)C3(C)CC3)NC(=O)[C@@H]3C[C@]4(CCc5c(c(C)nc6ccc(OC)cc56)O4)CN3C2=O)c1` [Example 432, (2R,6S,12Z,13aS,14aR,16aS)-9′-methoxy-6-[(4-methoxypyridin-2-yl)amino]-5′-methyl-N-[(1-methylcyclopropyl)sulfonyl]-5,16-dioxo-1,1′,2′,6,7,8,9,10,11,13a,14,15,16,16a-tetradecahydrospiro[cyclopropa[e]pyrrolo[1,2-a][1,4]diazacyclopentadecine-2,3′-pyrano[2,3-c]quinoline]-14a(5H)-carboxamide], the EC50 in the assay on HCV genotype 1b replicon came out at 7.5 nM. The compound further showed a concentration for half-maximal inhibition (IC50) in assay [1] of 0.091 nM.

Regarding `CCc1nc2ccc(OC)cc2c2c1O[C@]1(CC2)C[C@H]2C(=O)N[C@]3(C(=O)NS(=O)(=O)C4(C)CC4)C[C@H]3/C=C\CCCCC[C@H](NC(=O)O[C@H](C)C(C)C)C(=O)N2C1` [Example 433, (2R)-3-methylbutan-2-yl [(2R,6S,12Z,13aS,14aR,16aS)-5′-ethyl-9′-methoxy-14a-{[(1-methylcyclopropyl)sulfonyl]carbamoyl}-5,16-dioxo-1,1′,2′,5,6,7,8,9,10,11,13a,14,14a,15,16,16a-hexadecahydrospiro[cyclopropa[e]pyrrolo[1,2-a][1,4]diazacyclopentadecine-2,3′-pyrano[2,3-c]quinolin]-6-yl]carbamate], the EC50 in the assay with HCV genotype 1b replicon worked out at 2.17 nM. In addition, in assay [1], half-maximal inhibition (IC50) required 0.012 nM.

As to `CCc1nc2ccc(OC)cc2c2c1O[C@]1(CC2)C[C@H]2C(=O)N[C@]3(C(=O)NS(=O)(=O)C4(C)CC4)C[C@H]3/C=C\CCCCC[C@H](NC(=O)O[C@@H](C)C(C)C)C(=O)N2C1` [Example 434, (2S)-3-methylbutan-2-yl [(2R,6S,12Z,13aS,14aR,16aS)-5′-ethyl-9′-methoxy-14a-{[(1-methylcyclopropyl)sulfonyl]carbamoyl}-5,16-dioxo-1,1′,2′,5,6,7,8,9,10,11,13a,14,14a,15,16,16a-hexadecahydrospiro[cyclopropa[e]pyrrolo[1,2-a][1,4]diazacyclopentadecine-2,3′-pyrano[2,3-c]quinolin]-6-yl]carbamate], the 50% effective concentration (EC50) with HCV genotype 1b replicon stood at 1.78 nM. Besides, in assay [1], the IC50 worked out at 0.012 nM.

As to `COC(=O)N[C@H]1CCCCC/C=C\[C@@H]2C[C@@]2(C(=O)NS(=O)(=O)C2(C)CC2)NC(=O)[C@@H]2C[C@]3(CCc4c(c(C5CC5)nc5ccc(OC)cc45)O3)CN2C1=O` [Example 435, methyl [(2R,6S,12Z,13aS,14aR,16aS)-5′-cyclopropyl-9′-methoxy-14a-{[(1-methylcyclopropyl)sulfonyl]carbamoyl}-5,16-dioxo-1,1′,2′,5,6,7,8,9,10,11,13a,14,14a,15,16,16a-hexadecahydrospiro[cyclopropa[e]pyrrolo[1,2-a][1,4]diazacyclopentadecine-2,3′-pyrano[2,3-c]quinolin]-6-yl]carbamate], the concentration giving a half-maximal response (EC50) in the assay on HCV genotype 1b replicon (K+ salt) was determined as 3.08 nM. The IC50 in assay [1] (K+ salt) worked out at 0.069 nM.

For the compound `CCOC(=O)N[C@H]1CCCCC/C=C\[C@@H]2C[C@@]2(C(=O)NS(=O)(=O)C2(C)CC2)NC(=O)[C@@H]2C[C@]3(CCc4c(c(C5CC5)nc5ccc(OC)cc45)O3)CN2C1=O` [Example 436, ethyl [(2R,6S,12Z,13aS,14aR,16aS)-5′-cyclopropyl-9′-methoxy-14a-{[(1-methylcyclopropyl)sulfonyl]carbamoyl}-5,16-dioxo-1,1′,2′,5,6,7,8,9,10,11,13a,14,14a,15,16,16a-hexadecahydrospiro[cyclopropa[e]pyrrolo[1,2-a][1,4]diazacyclopentadecine-2,3′-pyrano[2,3-c]quinolin]-6-yl]carbamate], in the assay on HCV genotype 1b replicon (K+ salt), the EC50 turned out to be 1.18 nM. For the same compound, the half-inhibitory concentration (IC50) in assay [1] (K+ salt) stood at 0.029 nM.

As to `CCCOC(=O)N[C@H]1CCCCC/C=C\[C@@H]2C[C@@]2(C(=O)NS(=O)(=O)C2(C)CC2)NC(=O)[C@@H]2C[C@]3(CCc4c(c(C5CC5)nc5ccc(OC)cc45)O3)CN2C1=O` [Example 437, propyl [(2R,6S,12Z,13aS,14aR,16aS)-5′-cyclopropyl-9′-methoxy-14a-{[(1-methylcyclopropyl)sulfonyl]carbamoyl}-5,16-dioxo-1,1′,2′,5,6,7,8,9,10,11,13a,14,14a,15,16,16a-hexadecahydrospiro[cyclopropa[e]pyrrolo[1,2-a][1,4]diazacyclopentadecine-2,3′-pyrano[2,3-c]quinolin]-6-yl]carbamate], the EC50 in the assay on HCV genotype 1b replicon (K+ salt) stood at 1 nM. Moreover, the IC50 in assay [1] (K+ salt) came to 0.016 nM.

Take `COCCCOc1ccc2nc(C)c3c(c2c1)CC[C@]1(C[C@H]2C(=O)N[C@]4(C(=O)NS(=O)(=O)C5(C)CC5)C[C@H]4/C=C\CCCCC[C@H](NC(=O)OC(C)(C)C)C(=O)N2C1)O3` [Example 438, tert-butyl [(2R,6S,12Z,13aS,14aR,16aS)-9′-(3-methoxypropoxy)-5′-methyl-14a-{[(1-methylcyclopropyl)sulfonyl]carbamoyl}-5,16-dioxo-1,1′,2′,5,6,7,8,9,10,11,13a,14,14a,15,16,16a-hexadecahydrospiro[cyclopropa[e]pyrrolo[1,2-a][1,4]diazacyclopentadecine-2,3′-pyrano[2,3-c]quinolin]-6-yl]carbamate]: the concentration for a half-maximal effect (EC50) with HCV genotype 1b replicon is 3.5 nM. The compound further came in with a half-maximal inhibitory concentration (IC50) in assay [1] of 0.023 nM.

With `CCc1nc2ccc(OC)cc2c2c1O[C@]1(C[C@H]2F)C[C@H]2C(=O)N[C@]3(C(=O)NS(=O)(=O)C4(C)CC4)C[C@H]3/C=C\CCCCC[C@H](NC(=O)OC(C)(C)C)C(=O)N2C1` [Example 439, tert-butyl [(1′R,2S,6S,12Z,13aS,14aR,16aS)-5′-ethyl-1′-fluoro-9′-methoxy-14a-{[(1-methylcyclopropyl)sulfonyl]carbamoyl}-5,16-dioxo-1,1′,2′,5,6,7,8,9,10,11,13a,14,14a,15,16,16a-hexadecahydrospiro[cyclopropa[e]pyrrolo[1,2-a][1,4]diazacyclopentadecine-2,3′-pyrano[2,3-c]quinolin]-6-yl]carbamate], in the assay on HCV genotype 1b replicon, the concentration giving a half-maximal response (EC50) amounted to 1.55 nM. Moreover, the IC50 in assay [1] was 0.009 nM.

For the compound `COc1ccc2nc(C(F)F)c3c(c2c1)CC[C@]1(C[C@H]2C(=O)N[C@]4(C(=O)NS(=O)(=O)C5(C)CC5)C[C@H]4/C=C\CCCCC[C@H](NC(=O)OCC(C)C)C(=O)N2C1)O3` [Example 440, 2-methylpropyl [(2R,6S,12Z,13aS,14aR,16aS)-5′-(difluoromethyl)-9′-methoxy-14a-{[(1-methylcyclopropyl)sulfonyl]carbamoyl}-5,16-dioxo-1,1′,2′,5,6,7,8,9,10,11,13a,14,14a,15,16,16a-hexadecahydrospiro[cyclopropa[e]pyrrolo[1,2-a][1,4]diazacyclopentadecine-2,3′-pyrano[2,3-c]quinolin]-6-yl]carbamate], the EC50 in the assay on HCV genotype 1b replicon (K+ salt) was determined as 1.98 nM. Moreover, the IC50 in assay [1] (K+ salt) turned out to be 0.016 nM.

With `COc1ccc2nc(C(F)F)c3c(c2c1)CC[C@]1(C[C@H]2C(=O)N[C@]4(C(=O)NS(=O)(=O)C5(C)CC5)C[C@H]4/C=C\CCCCC[C@H](NC(=O)OCC(C)(C)C)C(=O)N2C1)O3` [Example 441, 2,2-dimethylpropyl [(2R,6S,12Z,13aS,14aR,16aS)-5′-(difluoromethyl)-9′-methoxy-14a-{[(1-methylcyclopropyl)sulfonyl]carbamoyl}-5,16-dioxo-1,1′,2′,5,6,7,8,9,10,11,13a,14,14a,15,16,16a-hexadecahydrospiro[cyclopropa[e]pyrrolo[1,2-a][1,4]diazacyclopentadecine-2,3′-pyrano[2,3-c]quinolin]-6-yl]carbamate], the EC50 in the assay on HCV genotype 1b replicon (K+ salt) came out at 1.53 nM. The half-inhibitory concentration (IC50) in assay [1] (K+ salt) amounted to 0.016 nM.

For the origin of these results see patent US8987195B2 (priority 2012, dated 2015).
